# Measured values from patent US12521393B2, “Cytotoxicity targeting chimeras for CCR2-expressing cells” (GLAXOSMITHKLINE INTELLECTUAL PROPERTY DEVELOPMENT LIMITED, priority 2021, dated 2026).
# Experiments:
# [1] = biological target: anti-cotinine antibody (SEQ ID NO: 11/12, rabbit variable region with human IgG1 Fc DE mutation); assay: SPR binding of anti-cotinine antibody to ARM compounds, Biacore T200, 37° C. (Example 202); conditions: SPR Biacore T200, 37° C., pH 7.4, antibody SEQ ID NO: 11/12 captured on protein A; Kd in molar
# Outline: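 Antibody captured on a protein A chip; ARM compounds injected at 100 μL/min (200 s association, 2000 s dissociation), 3-fold 5-point series from 200 nM, at 37 °C in HEPES pH 7.4 buffer with 0.005% P20 and 1% DMSO. Double-referenced sensorgrams fit 1:1 for kon, koff, Kd (koff/kon), residence time (1/koff); pKd averaged across runs.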
# [2] = system: endogenous target monocytes in human PBMC; assay: PBMC ex vivo monocyte depletion flow cytometry assay (Example 200); format: cell-based; conditions: with anti-cotinine antibody (SEQ ID NO: 11/12), 18-24 hours, EC50 in molar, read-out: Ex Vivo Depletion Assay pEC50 (converted)
# Outline: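 Monocyte depletion is reported as pEC50, averaged or given individually across runs, and read by flow cytometry staining CD45, CD14 and CD4 with a viability dye. Compounds, diluted four-fold over 11 points from 1 mM DMSO stocks, were combined with 30 μg/mL Fc-enhanced anti-cotinine antibody and human PBMC, then incubated 18-24 h at 37° C.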
Structure (SMILES),pKd of Antibody for ARM Compound of Formula (I) [1],EC50 [2] [nM]
"CC(C)N(C)[C@@H]1CC[C@H](N2CC[C@H](Nc3ncnc4ccc(C(F)(F)F)cc34)C2=O)[C@H](NC(=O)[C@H]2CC[C@@H](NC(=O)CCOCCOCCNC(=O)CNC(=O)[C@H]3CC(=O)N(C)[C@@H]3c3cccnc3)CC2)C1 [Example 63, (2S,3S)-N-(2-((2-(2-(3-(((1S,4s)-4-(((1R,2S,5R)-5-(Isopropyl(methyl)amino)-2-((S)-2-oxo-3-((6-(trifluoromethyl)quinazolin-4-yl)amino)pyrrolidin-1-yl)cyclohexyl)carbamoyl)cyclohexyl)amino)-3-oxopropoxy)ethoxy)ethyl)amino)-2-oxoethyl)-1-methyl-5-oxo-2-(pyridin-3-yl)pyrrolidine-3-carboxamide]",8.674,0.631
"CC(C)N(C)[C@@H]1CC[C@H](N2CC[C@H](Nc3ncnc4ccc(C(F)(F)F)cc34)C2=O)[C@H](NC2CCN(C(=O)CCOCCOCCOCCOCCNC(=O)[C@H]3CC(=O)N(C)[C@@H]3c3cccnc3)CC2)C1 [Example 69, (2S,3S)-N-(15-(4-(((1R,2S,5R)-5-(Isopropyl(methyl)amino)-2-((S)-2-oxo-3-((6-(trifluoromethyl)quinazolin-4-yl)amino)pyrrolidin-1-yl)cyclohexyl)amino)piperidin-1-yl)-15-oxo-3,6,9,12-tetraoxapentadecyl)-1-methyl-5-oxo-2-(pyridin-3-yl)pyrrolidine-3-carboxamide]",9.321,1.58
"CC(C)N(C)[C@@H]1CC[C@H](N2CC[C@H](Nc3ncnc4ccc(C(F)(F)F)cc34)C2=O)[C@H](NC(=O)CCOCCOCCNC(=O)CCOCCOCCNC(=O)[C@H]2CC(=O)N(C)[C@@H]2c2cccnc2)C1 [Example 76, (2S,3S)-N-(19-(((1R,2S,5R)-5-(Isopropyl(methyl)amino)-2-((S)-2-oxo-3-((6-(trifluoromethyl)quinazolin-4-yl)amino)pyrrolidin-1-yl)cyclohexyl)amino)-9,19-dioxo-3,6,13,16-tetraoxa-10-azanonadecyl)-1-methyl-5-oxo-2-(pyridin-3-yl)pyrrolidine-3-carboxamide]",9.1155,1.26
"CC(C)N(C)[C@@H]1CC[C@H](N2CC[C@H](Nc3ncnc4ccc(C(F)(F)F)cc34)C2=O)[C@H](NC(=O)[C@H]2CC[C@@H](NC(=O)COCCNC(=O)COCCNC(=O)[C@H]3CC(=O)N(C)[C@@H]3c3cccnc3)CC2)C1 [Example 99, (2S,3S)-N-(2-(2-((2-(2-(((1S,4s)-4-(((1R,2S,5R)-5-(Isopropyl(methyl)amino)-2-((S)-2-oxo-3-((6-(trifluoromethyl)quinazolin-4-yl)amino)pyrrolidin-1-yl)cyclohexyl)carbamoyl)cyclohexyl)amino)-2-oxoethoxy)ethyl)amino)-2-oxoethoxy)ethyl)-1-methyl-5-oxo-2-(pyridin-3-yl)pyrrolidine-3-carboxamide]",9.062,0.794
"CC(C)N(C)[C@@H]1CC[C@H](N2CC[C@H](Nc3ncnc4ccc(C(F)(F)F)cc34)C2=O)[C@H](NC(=O)CCOCCNC(=O)COCCNC(=O)COCCNC(=O)[C@H]2CC(=O)N(C)[C@@H]2c2cccnc2)C1 [Example 102, (2S,3S)-N-(18-(((1R,2S,5R)-5-(Isopropyl(methyl)amino)-2-((S)-2-oxo-3-((6-(trifluoromethyl)quinazolin-4-yl)amino)pyrrolidin-1-yl)cyclohexyl)amino)-5,11,18-trioxo-3,9,15-trioxa-6,12-diazaoctadecyl)-1-methyl-5-oxo-2-(pyridin-3-yl)pyrrolidine-3-carboxamide]",9.076,0.316
"CC(C)N(C)[C@@H]1CC[C@H](N2CC[C@H](Nc3ncnc4ccc(C(F)(F)F)cc34)C2=O)[C@H](NC(=O)CCOCCNC(=O)CCOCCNC(=O)COCCNC(=O)[C@H]2CC(=O)N(C)[C@@H]2c2cccnc2)C1 [Example 105, (2S,3S)-N-(19-(((1R,2S,5R)-5-(Isopropyl(methyl)amino)-2-((S)-2-oxo-3-((6-(trifluoromethyl)quinazolin-4-yl)amino)pyrrolidin-1-yl)cyclohexyl)amino)-5,12,19-trioxo-3,9,16-trioxa-6,13-diazanonadecyl)-1-methyl-5-oxo-2-(pyridin-3-yl)pyrrolidine-3-carboxamide]",9.0705,0.398
"CC(C)N(C)[C@@H]1CC[C@H](N2CC[C@H](Nc3ncnc4ccc(C(F)(F)F)cc34)C2=O)[C@H](NC(=O)CCOCCNC(=O)[C@H]2CC[C@@H](NC(=O)COCCNC(=O)[C@H]3CC(=O)N(C)[C@@H]3c3cccnc3)CC2)C1 [Example 107, (2S,3S)-N-(2-(2-(((1S,4R)-4-((2-(3-(((1R,2S,5R)-5-(Isopropyl(methyl)amino)-2-((S)-2-oxo-3-((6-(trifluoromethyl)quinazolin-4-yl)amino)pyrrolidin-1-yl)cyclohexyl)amino)-3-oxopropoxy)ethyl)carbamoyl)cyclohexyl)amino)-2-oxoethoxy)ethyl)-1-methyl-5-oxo-2-(pyridin-3-yl)pyrrolidine-3-carboxamide]",9.161,0.2
"CC(C)N(C)[C@@H]1CC[C@H](N2CC[C@H](Nc3ncnc4ccc(C(F)(F)F)cc34)C2=O)[C@H](NC(=O)COCCNC(=O)COCCNC(=O)COCCNC(=O)[C@H]2CC(=O)N(C)[C@@H]2c2cccnc2)C1 [Example 111, (2S,3S)-N-(17-(((1R,2S,5R)-5-(Isopropyl(methyl)amino)-2-((S)-2-oxo-3-((6-(trifluoromethyl)quinazolin-4-yl)amino)pyrrolidin-1-yl)cyclohexyl)amino)-5,11,17-trioxo-3,9,15-trioxa-6,12-diazaheptadecyl)-1-methyl-5-oxo-2-(pyridin-3-yl)pyrrolidine-3-carboxamide]",9.0855,5.01
"CC(C)N(C)[C@@H]1CC[C@H](N2CC[C@H](Nc3ncnc4ccc(C(F)(F)F)cc34)C2=O)[C@H](NC(=O)[C@H]2CC[C@@H](NC(=O)CCCOCCCCOCCNC(=O)[C@H]3CC(=O)N(C)[C@@H]3c3cccnc3)CC2)C1 [Example 122, (2S,3S)-N-(2-(4-(4-(((1S,4s)-4-(((1R,2S,5R)-5-(Isopropyl(methyl)amino)-2-((S)-2-oxo-3-((6-(trifluoromethyl)quinazolin-4-yl)amino)pyrrolidin-1-yl)cyclohexyl)carbamoyl)cyclohexyl)amino)-4-oxobutoxy)butoxy)ethyl)-1-methyl-5-oxo-2-(pyridin-3-yl)pyrrolidine-3-carboxamide]",9.146,0.794
"CC(C)N(C)[C@@H]1CC[C@H](N2CC[C@H](Nc3ncnc4ccc(C(F)(F)F)cc34)C2=O)[C@H](NC(=O)CNC(=O)[C@H]2CC[C@@H](NC(=O)CCOCCOCCNC(=O)[C@H]3CC(=O)N(C)[C@@H]3c3cccnc3)CC2)C1 [Example 137, (2S,3S)-N-(2-(2-(3-(((1S,4s)-4-((2-(((1R,2S,5R)-5-(Isopropyl(methyl)amino)-2-((S)-2-oxo-3-((6-(trifluoromethyl)quinazolin-4-yl)amino)pyrrolidin-1-yl)cyclohexyl)amino)-2-oxoethyl)carbamoyl)cyclohexyl)amino)-3-oxopropoxy)ethoxy)ethyl)-1-methyl-5-oxo-2-(pyridin-3-yl)pyrrolidine-3-carboxamide]",9.336,2
"CC(C)N(C)[C@@H]1CC[C@H](N2CC[C@H](Nc3ncnc4ccc(C(F)(F)F)cc34)C2=O)[C@H](NC(=O)[C@H]2CC[C@@H](NC(=O)CCOCCNC(=O)CCNC(=O)CCNC(=O)[C@H]3CC(=O)N(C)[C@@H]3c3cccnc3)CC2)C1 [Example 182, (2S,3S)-N-(3-((3-((2-(3-(((1S,4s)-4-(((1R,2S,5R)-5-(Isopropyl(methyl)amino)-2-((S)-2-oxo-3-((6-(trifluoromethyl)quinazolin-4-yl)amino)pyrrolidin-1-yl)cyclohexyl)carbamoyl)cyclohexyl)amino)-3-oxopropoxy)ethyl)amino)-3-oxopropyl)amino)-3-oxopropyl)-1-methyl-5-oxo-2-(pyridin-3-yl)pyrrolidine-3-carboxamide]",9.117,0.158
"CC(C)N(C)[C@@H]1CC[C@H](N2CC[C@H](Nc3ncnc4ccc(C(F)(F)F)cc34)C2=O)[C@H](NC(=O)CCOCCC(=O)N[C@H]2C[C@@H](C(=O)NCCOCCNC(=O)[C@H]3CC(=O)N(C)[C@@H]3c3cccnc3)C2)C1 [Example 186, (2S,3S)-N-(2-(2-((1S,3R)-3-(3-(3-(((1R,2S,5R)-5-(Isopropyl(methyl)amino)-2-((S)-2-oxo-3-((6-(trifluoromethyl)quinazolin-4-yl)amino)pyrrolidin-1-yl)cyclohexyl)amino)-3-oxopropoxy)propanamido)cyclobutane-1-carboxamido)ethoxy)ethyl)-1-methyl-5-oxo-2-(pyridin-3-yl)pyrrolidine-3-carboxamide]",9.1435,0.316
CC(C)N(C)[C@@H]1CC[C@H](N2CC[C@H](Nc3ncnc4ccc(C(F)(F)F)cc34)C2=O)[C@H](NC(=O)CCOCCC(=O)N[C@H]2C[C@H](C(=O)NCCOCCNC(=O)[C@H]3CC(=O)N(C)[C@@H]3c3cccnc3)C2)C1 [Example 187],9.104,0.251
